{"source": "patent US20180369244A1", "about": "“BTK Inhibitors to Treat Solid Tumors Through Modulation of the Tumor Microenvironment” (Acerta Pharma B.V., priority 2014, published 2018)", "key": {"EGFR": {"test_system": "EGFR", "assay": "EGF-induced EGFR phosphorylation in A431 cells (phosphoflow)", "type": "cell-based, human", "procedure": "Phosphoflow cytometry was performed with p-EGFR (Y1069). MFI values were normalized so that 100% represents the p-EGFR level in stimulated cells without inhibitor, while 0% represents the unstimulated/no drug condition."}, "[1]": {"test_system": "orthotopic pancreatic cancer (KPC cell line)", "assay": "Orthotopic pancreatic cancer model", "type": "in vivo, C57BL/6 mice", "details": "15 mg/kg oral", "procedure": "Cell line derived from KrasGl2D;Trp53R172H;Pdx1-Cre (KPC) mice were orthotopically implanted into the head of the pancreas after 35 passages. Based on the mice background from where the cell lines were generated, 1×10^6 cells were injected in C57BL/6 mice. Throughout the experiment, animals were provided with food and water ad libitum and subjected to a 12-h dark/light cycle. Animal studies were performed in accordance with the U.S. Public Health Service “Guidelines for the Care and Use of Laboratory Animals” (IACUC). After euthanization, pancreatic tumors were dissected out, weighed and single cell suspensions were prepared for flow cytometry analysis."}, "primary CLL cells": {"test_system": "primary CLL cells", "assay": "Rituximab ADCC chromium release assay", "type": "cell-based, human", "details": "1 μM; primary CLL samples", "procedure": "Cell culture conditions were as follows. Cell lines Raji and DHL-4 were maintained in […] supplemented with fetal bovine serum, L-glutamine, 2-mercaptoethanol and penicillin-streptomycin at 37° C. in a humidified incubator. The HER18 cells were maintained in DEM supplemented with fetal bovine serum, penicillin-streptomycin and. Prior to assay, HER18 cells were harvested using trypsin-EDTA, washed with phosphate-buffered saline (PBS) containing 5% serum and viable cells were counted. For culture of primary target cells, peripheral blood from CLL patients was subject to density centrifugation to obtain peripheral blood mononuclear cells (PBMC). Cell preparations were washed and then subject to positive selection of CD5+CD19^+ CLL cells using magnetic beads (MACS, Miltenyi Biotech). Cell preparations were used fresh after selection. NK cells from CLL patients and healthy volunteers were enriched from peripheral blood collected in sodium citrate anti-coagulant tubes and then subject to density centrifugation. Removal of non NK cells was performed using negative selection by MACS separation. […]\nADCC assays were performed as follows. […] The effect of NK cell natural cytotoxicity was assessed in wells containing no rituximab. […] Supernatants were harvested and ^51Cr release was measured by liquid scintillation counting. […]"}, "ID8 ovarian cancer": {"test_system": "ID8 ovarian cancer", "assay": "ID8 syngeneic orthotropic ovarian cancer murine model", "type": "in vivo, mice", "details": "15 mg/kg/BID oral", "excerpt": "Human ovarian cancer models, including the ID8 syngeneic orthotropic ovarian cancer model and other animal models, are described in Fong and Kakar, J. Ovarian Res. 2009, 2, 12; Greenaway, et al., Gynecol. Oncol. 2008, 108, 385-94; Urzua et al., Tumour Biol. 2005, 26, 236-44; Janat-Amsbury, et al., Anticancer Res. 2006, 26, 3223-28; Janat-Amsbury, et al., Anticancer Res. 2006, 26, 2785-89. […] The results of the study are shown in FIG. 5, FIG. 6, FIG. 7, FIG. 8, FIG. 9, FIG. 10, FIG. 11, and FIG. 12."}, "CD8+ T cells": {"test_system": "CD8+ T cells", "assay": "Cytotoxic T cell (CTL) assay", "type": "cell-based", "details": "500 nM", "procedure": "CD8^+ T cells have at least two primary effector functions: (1) produce large amounts of IFN-γ (which activates macrophages), and (2) cytolytic activity. […] The targets were B lymphoblasts from lipopolysaccharide (LPS) treated cultures. The assay was performed by incubating different ratios of effectors:targets for 4 hours."}, "[2]": {"test_system": "BCR activation markers CD69 and CD86", "assay": "In vivo potency, CD69 and CD86 expression after IgM stimulation", "parameters": "species or system mice", "details": "oral gavage, 3 h post-dose", "excerpt": "CD86 and CD69 are cell surface proteins that are BCR activation markers. […] BCR was stimulated with IgM and the expression of activation marker CD69 and CD86 are monitored by flow cytometry and to determine EC50 values."}, "BTK": {"molecular_target": "T1, BTK (Mus musculus, UniProt P35991)", "T1 construct": "endogenous in cells; host or cells: granulocytic and monocytic MDSCs from tumor-bearing PDA mice", "T1 sequence (P35991 whole entry)": "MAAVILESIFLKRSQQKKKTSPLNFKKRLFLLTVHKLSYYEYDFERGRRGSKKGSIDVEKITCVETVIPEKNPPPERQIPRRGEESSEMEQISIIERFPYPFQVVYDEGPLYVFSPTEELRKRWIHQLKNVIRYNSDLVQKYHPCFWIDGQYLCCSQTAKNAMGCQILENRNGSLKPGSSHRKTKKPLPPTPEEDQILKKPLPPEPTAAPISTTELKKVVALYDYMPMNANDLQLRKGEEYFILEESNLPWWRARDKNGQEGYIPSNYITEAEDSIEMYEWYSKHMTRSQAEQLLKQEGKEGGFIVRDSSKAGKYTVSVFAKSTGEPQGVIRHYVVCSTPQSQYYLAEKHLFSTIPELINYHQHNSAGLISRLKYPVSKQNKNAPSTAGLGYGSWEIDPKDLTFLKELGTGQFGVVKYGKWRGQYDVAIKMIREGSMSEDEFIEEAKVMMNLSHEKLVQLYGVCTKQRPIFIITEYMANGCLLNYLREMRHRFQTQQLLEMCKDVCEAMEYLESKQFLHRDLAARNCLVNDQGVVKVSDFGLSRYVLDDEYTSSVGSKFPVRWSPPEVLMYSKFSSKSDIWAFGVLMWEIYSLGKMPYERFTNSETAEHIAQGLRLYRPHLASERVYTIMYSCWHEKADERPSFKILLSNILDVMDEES", "assay": "Molecular probe assay, BTK occupancy in MDSCs of tumor bearing PDA mice", "type": "in vivo", "details": "15 mg/kg BID, Day 8, 4 hours post dose", "excerpt": "A molecular probe assay was used to calculate the percent irreversible occupancy of total BTK."}, "NK cells [3]": {"test_system": "NK cells", "assay": "Antibody-dependent NK cell IFN-γ secretion (ELISA)", "type": "cell-based, human", "details": "1 μM", "quoted_text": "The HER18 cells were maintained in DEM supplemented with fetal bovine serum, penicillin-streptomycin and. Prior to assay, HER18 cells were harvested using trypsin-EDTA, washed with phosphate-buffered saline (PBS) containing 5% serum and viable cells were counted. […] NK cells from CLL patients and healthy volunteers were enriched from peripheral blood collected in sodium citrate anti-coagulant tubes and then subject to density centrifugation. Removal of non NK cells was performed using negative selection by MACS separation. Freshly isolated NK cells were washed three times, enumerated, and then used immediately for ADCC assays.\nCytokine secretion was determined as follows. Rituximab and trastuzumab-dependent NK-cell mediated degranulation and cytokine release were assessed using lymphoma and HER2+ breast cancer cell lines (DHL-4 and HER18, respectively). […] NK cells from healthy donors were enriched as described above and then added to the target cells and incubated for 4 hours at 37° C. Triplicate cultures were performed on NK cells from donors. After incubation, supernatants were harvested, centrifuged briefly, and then analyzed for interferon-γ using an enzyme-linked immunosorbent assay (ELISA)."}, "Raji cells": {"test_system": "Raji cells", "assay": "Rituximab ADCC chromium release assay", "type": "cell-based, human", "details": "1 μM", "excerpt": "Cell culture conditions were as follows. […] The HER18 cells were maintained in DEM supplemented with fetal bovine serum, penicillin-streptomycin and. Prior to assay, HER18 cells were harvested using trypsin-EDTA, washed with phosphate-buffered saline (PBS) containing 5% serum and viable cells were counted. For culture of primary target cells, peripheral blood from CLL patients was subject to density centrifugation to obtain peripheral blood mononuclear cells (PBMC). Cell preparations were washed and then subject to positive selection of CD5+CD19^+ CLL cells using magnetic beads (MACS, Miltenyi Biotech). Cell preparations were used fresh after selection. NK cells from CLL patients and healthy volunteers were enriched from peripheral blood collected in sodium citrate anti-coagulant tubes and then subject to density centrifugation. Removal of non NK cells was performed using negative selection by MACS separation. Freshly isolated NK cells were washed three times, enumerated, and then used immediately for ADCC assays.\nADCC assays were performed as follows. Briefly, target cells (Raji or primary CLL) were labeled by incubation at 37° C. with 100 μCi ^51Cr for 4 hours prior to co-culture with NK cells. Cells were washed, enumerated, and then added in triplicate to prepared 96-well plates containing treated NK cells at an effector:target (E:T) ratio of 25:1. […] The effect of NK cell natural cytotoxicity was assessed in wells containing no rituximab. Cultures were incubated at 37° C. for 4 hours, and then centrifuged. Supernatants were harvested and ^51Cr release was measured by liquid scintillation counting. All experiments were performed in triplicate."}, "NK cells [4]": {"test_system": "NK cells", "assay": "Antibody-dependent NK cell degranulation (CD107a flow cytometry)", "type": "cell-based, human", "source_text": "Cell culture conditions were as follows. […] The HER18 cells were maintained in DEM supplemented with fetal bovine serum, penicillin-streptomycin and. Prior to assay, HER18 cells were harvested using trypsin-EDTA, washed with phosphate-buffered saline (PBS) containing 5% serum and viable cells were counted. […] Cell preparations were washed and then subject to positive selection of CD5+CD19^+ CLL cells using magnetic beads (MACS, Miltenyi Biotech). Cell preparations were used fresh after selection. […] Removal of non NK cells was performed using negative selection by MACS separation. Freshly isolated NK cells were washed three times, enumerated, and then used immediately for ADCC assays.\nLytic granule release was determined as follows. […] Degranulation was evaluated via by flow cytometery by externalization of CD107a, a protein normally present on the inner leaflet of lytic granules, and gating on NK cells (CD3-CD16^+ lymphocytes). The percentage of CD107a positive NK cells was quantified by comparison with a negative control (isotype control, unstained cells/FMO). Control cultures (NK cells cultured without target cells, or NK, target cell co-cultures in the absence of appropriate monoclonal antibody) were also evaluated; all experiments were performed in triplicate."}}}
{"smiles": "CC#CC(=O)N1CCC[C@H]1c1nc(-c2ccc(C(=O)Nc3ccccn3)cc2)c2c(N)nccn12", "note": "[Formula (II), (S)-4-(8-amino-3-(1-(but-2-ynoyl)pyrrolidin-2-yl)imidazo[1,5-a]pyrazin-1-yl)-N-(pyridin-2-yl)benzamide]", "values": [{"measurement": "inhibition of in vitro EGFR phosphorylation", "setting": "EGFR; 10 μM", "result": "no inhibition"}, {"measurement": "inhibition at 10 µM", "setting": "EGFR; Homo sapiens, A-431, read-out: EGF-induced p-EGFR inhibition", "result": 7, "unit": "%"}, {"measurement": "immunosuppressive tumor associated myeloid cells and Tregs", "setting": "[1]; pancreatic tumor-bearing mice", "result": "reduce immunosuppressive tumor associated myeloid cells and Tregs"}, {"measurement": "tumor volume", "setting": "[1]; vs vehicle", "result": "statistically significant reductions in tumor volume"}, {"measurement": "ex vivo NK cell activity against autologous tumor cells", "setting": "primary CLL cells", "result": "not inhibited"}, {"measurement": "ID8 ovarian cancer growth", "setting": "ID8 ovarian cancer", "result": "impairs ID8 ovarian cancer growth"}, {"measurement": "immunosuppressive B cells in tumor-bearing mice", "setting": "ID8 ovarian cancer", "result": "significant reduction in immunosuppressive B cells"}, {"measurement": "tumor associated Tregs and CD8+ T cells", "setting": "ID8 ovarian cancer", "result": "significant reduction in immunosuppressive tumor associated Tregs and an increase in CD8^+ T cells"}, {"measurement": "CD8+ T cell function as % cytotoxicity", "setting": "CD8+ T cells", "result": "no effect on CD8^+ T cell function"}, {"measurement": "in vivo potency, inhibition of activation markers", "setting": "[2]", "result": "more potent at inhibiting expression of activation makers than ibrutinib"}, {"measurement": "irreversible BTK occupancy in granulocytic and monocytic MDSC", "setting": "BTK", "result": "Complete BTK occupancy"}, {"measurement": "IFN-γ or NK cell degranulation", "setting": "NK cells [3]", "result": "did not inhibit"}, {"measurement": "inhibition of trastuzumab-stimulated NK cell cytokine release", "setting": "NK cells [3]; HER18 target cells", "result": "no inhibitory effect"}, {"measurement": "rituximab ADCC, NK cell activity", "setting": "Raji cells; FIG. 31", "result": "not inhibited"}, {"measurement": "antibody-dependent lysis of rituximab-coated Raji cells", "setting": "Raji cells; healthy donor NK cells", "result": "not inhibited"}, {"measurement": "inhibition of trastuzumab-stimulated NK cell degranulation", "setting": "NK cells [4]; 1 μM, HER18 target cells", "result": "no inhibitory effect"}, {"measurement": "reduction of rituximab-stimulated NK cell degranulation", "setting": "NK cells [4]; DHL-4 target cells", "result": "< 2", "unit": "%"}]}
